Measurements from patent US6303630A, “Diarylsulfone non-nucleoside reverse transcriptase inhibitors of human immunodeficiency virus” (University of the Sciences in Philadelphia, priority 2000, dated 2001).
Read-outs that look alike come from different tables or passages of the source.

How the values were obtained:
HIV-1 = assay: NCI in vitro anti-HIV drug screen: XTT-formazan assay, protection of T4 lymphocytes (CEM) from HIV-1 cytopathic effects; type: cell-based, human immunodeficiency virus (HIV-1); conditions: for EC50 / inhibition at 200 µM / inhibition at 2 µM / inhibition at 0.2 µM / inhibition at 0.634 µM / inhibition at 0.0635 µM / inhibition at 20 µM / inhibition at 63.2 µM / inhibition at 6.33 µM: Human immunodeficiency virus 1, CCRF-CEM; for EC50: 144 h, HIV-1 infected CEM cells, 6 days, XTT, approximate values, read-out: EC50 (50% effective concentration against HIV cytopathic effects); for inhibition at 200 µM / activity at 200 µM: dose 2.00 × 10^-4 Molar; for inhibition at 2 µM / activity at 2 µM: dose 2.00 × 10^-6 Molar; for inhibition at 0.2 µM / activity at 0.2 µM: dose 2.00 × 10^-7 Molar; for activity at 200 µM / activity at 20 µM / activity at 2 µM / activity at 0.2 µM / activity at 63.2 µM / activity at 6.33 µM / activity at 0.634 µM / activity at 0.0635 µM: Human immunodeficiency virus 1, Lymphocyte, read-out: Percent of Control, Infected; for TI50 (IC/EC), Therapeutic Index: IC50/EC50
Experimental: Compounds of the present invention were evaluated for anti-HIV efficacy by the National Cancer Institute's (NCI) In Vitro Anti AIDS Drug Discovery Program.
(§1) The NCI procedure is fully described, for example, in a bulletin provided by the National Institutes of Health, National Cancer Institute, Bethesda, Md. 20892, all of which is incorporated herein by reference. As related in the NCI bulletin, the procedure is based on O. W. Weislow et al., "New soluble-formazan assay for HIV-1 cytopathic effects: application to high flux screening of synthetic and natural products for AIDS-antiviral activity", J. Natl. Cancer Inst. 81:577-586 (1989), and is used to test for compounds active against human immunodeficiency virus (HIV), and is designed to detect compounds active at any stage of the virus reproductive cycle. As further related in the NCI bulletin, the assay includes killing of T4 lymphocytes by HIV. Amounts of HIV are added to cells, with a minimum of two cycles of virus reproduction found to be necessary to obtain the required cell killing. Compounds that interact with virions, cells, or virus gene-products to interfere with viral activities will protect cells from cytolysis. All were compared with a positive (e.g., AZT-treated) control evaluation at the same time under identical conditions. The procedure is set forth as follows:
(§2) A candidate compound is first dissolved in a suitable solvent, preferably dimethyl sulfoxide, then diluted 1:100 in cell culture medium before preparing serial half-log10 dilutions. T4 lymphocytes (CEM cell line) are then added and after a brief interval HIV-1 is added, resulting in a 1:200 final dilution of the compound. Uninfected cells with the compound serve as a toxicity control, and infected and uninfected without the compound serve as basic controls. Cultures are then incubated at 37° in a 5% carbon dioxide atmosphere for 6 days. The tetrazolium salt, XTT, is added to all wells, and cultures are incubated to allow formazan color development by viable cells. Individual wells are analyzed spectrophotometrically to quantitate formazan product, and in addition are viewed microscopically for detection of viable cells and confirmation of protective activity. Drug-treated virus-infected cells are compared with drug-treated noninfected cells and with other appropriate controls (untreated infected and untreated noninfected cells, drug-containing wells without cells, etc.) on the same plate. Data are reviewed in comparison with other tests performed at the same time and a determination as to activity is made.

[1] = tested on: T4 lymphocytes (CEM cell line); assay: Cell growth / toxicity control in uninfected T4 lymphocytes (CEM), XTT-formazan; type: cell-based; conditions: Homo sapiens, CCRF-CEM; for IC50: 144 h, approximate values; for activity at 200 µM: dose 2.00 × 10^-4 Molar; for activity at 200 µM / activity at 20 µM / activity at 2 µM / activity at 0.2 µM / activity at 63.2 µM / activity at 6.33 µM / activity at 0.634 µM / activity at 0.0635 µM: read-out: Percent of Control, Uninfected; for activity at 20 µM: dose 2.00 × 10^-5 Molar; for activity at 2 µM: dose 2.00 × 10^-6 Molar; for activity at 0.2 µM: dose 2.00 × 10^-7 Molar; for activity at 63.2 µM: dose 6.32 × 10^-5 Molar; for activity at 6.33 µM: dose 6.33 × 10^-6 Molar; for activity at 0.634 µM: dose 6.34 × 10^-7 Molar; for activity at 0.0635 µM: dose 6.35 × 10^-8 Molar
Text: as §1, §2

[2] = read-out: Percent of Protection
[3] = dose 6.34 × 10^-7 Molar, read-out: Percent of Protection
[4] = dose 6.35 × 10^-8 Molar, read-out: Percent of Protection
[5] = uninfected CEM cells, 6 days, XTT, read-out: IC50 (50% inhibitory concentration for cell growth)
[6] = dose 2.00 × 10^-5 Molar, read-out: Percent of Protection
[7] = dose 6.32 × 10^-5 Molar, read-out: Percent of Protection
[8] = dose 6.33 × 10^-6 Molar, read-out: Percent of Protection
[9] = read-out: Percent of Protection, dose 6.34 × 10^-7 Molar

CN(c1ccccc1Cl)S(=O)(=O)c1ccccc1[N+](=O)[O-] [Compound 38, N-(2-nitrophenylsulfonyl)-2chloro-N-methylaniline]
EC50 (HIV-1): 4.38 µM
inhibition at 200 µM (HIV-1; [2]): 2.73%
inhibition at 2 µM (HIV-1; [2]): 10.4%
inhibition at 0.2 µM (HIV-1; [2]): 2.73%
inhibition at 0.634 µM (HIV-1; [3]): -0.31%
inhibition at 0.0635 µM (HIV-1; [4]): -0.27%
inhibition at 20 µM (HIV-1; read-out: Percent of Protection, dose 2.00 × 10^-5 Molar): 61.9%
inhibition at 63.2 µM (HIV-1; read-out: Percent of Protection, dose 6.32 × 10^-5 Molar): -0.27%
inhibition at 6.33 µM (HIV-1; read-out: Percent of Protection, dose 6.33 × 10^-6 Molar): 69%
activity at 200 µM (HIV-1): 28.4%
activity at 20 µM (HIV-1; dose 2.00 × 10^-5 Molar): 63.8%
activity at 2 µM (HIV-1): 14.9%
activity at 0.2 µM (HIV-1): 7.25%
activity at 63.2 µM (HIV-1; dose 6.32 × 10^-5 Molar): 26.1%
activity at 6.33 µM (HIV-1; dose 6.33 × 10^-6 Molar): 70.6%
activity at 0.634 µM (HIV-1; dose 6.34 × 10^-7 Molar): 4.71%
activity at 0.0635 µM (HIV-1; dose 6.35 × 10^-8 Molar): 4.74%
TI50 (IC/EC), Therapeutic Index (HIV-1): 7.79 × 10^0
IC50 [1, 5]: 34.1 µM
activity at 200 µM [1]: 3.62%
activity at 20 µM [1]: 75.7%
activity at 2 µM [1]: 98.2%
activity at 0.2 µM [1]: 99.3%
activity at 63.2 µM [1]: 20.3%
activity at 6.33 µM [1]: 94.2%
activity at 0.634 µM [1]: 98.6%
activity at 0.0635 µM [1]: 101%

CNc1ccccc1S(=O)(=O)c1ccccc1Cl [Compound 82, 2-(2-CHLOROPHENYSULFONYL)-N-METHYLANILINE]
EC50 (HIV-1): 29.7 µM
inhibition at 200 µM (HIV-1; [2]): 3.76%
inhibition at 20 µM (HIV-1; [6]): 41.4%
inhibition at 2 µM (HIV-1; [2]): -5.07%
inhibition at 0.2 µM (HIV-1; [2]): -22.6%
inhibition at 63.2 µM (HIV-1; [7]): 68.1%
inhibition at 6.33 µM (HIV-1; [8]): 24.5%
inhibition at 0.634 µM (HIV-1; [3]): -8.87%
inhibition at 0.0635 µM (HIV-1; [4]): 23.7%
activity at 200 µM (HIV-1): 34.6%
activity at 20 µM (HIV-1; dose 2.00 × 10^-5 Molar): 60.1%
activity at 2 µM (HIV-1): 28.6%
activity at 0.2 µM (HIV-1): 16.6%
activity at 63.2 µM (HIV-1; dose 6.32 × 10^-5 Molar): 78.3%
activity at 6.33 µM (HIV-1; dose 6.33 × 10^-6 Molar): 48.6%
activity at 0.634 µM (HIV-1; dose 6.34 × 10^-7 Molar): 26%
activity at 0.0635 µM (HIV-1; dose 6.35 × 10^-8 Molar): 48.1%
TI50 (IC/EC), Therapeutic Index (HIV-1): 4.93 × 10^0
IC50 [1, 5]: 146 µM
activity at 200 µM [1]: 33.9%
activity at 20 µM [1]: 78.2%
activity at 2 µM [1]: 91.2%
activity at 0.2 µM [1]: 60.8%
activity at 63.2 µM [1]: 93.3%
activity at 6.33 µM [1]: 84.2%
activity at 0.634 µM [1]: 96.1%
activity at 0.0635 µM [1]: 93.2%

O=S(=O)(c1ccccc1)c1cccc2c1NCCC2 [Compound 45, 8-(phenylsulfonyl)-1,2,3,4-tetrahydroquinoline]
EC50 (HIV-1): 14 µM
inhibition at 200 µM (HIV-1; [2]): 42.2%
inhibition at 20 µM (HIV-1; [6]): 67%
inhibition at 2 µM (HIV-1; [2]): 2.49%
inhibition at 0.2 µM (HIV-1; [2]): 0.38%
inhibition at 63.2 µM (HIV-1; [7]): 59.8%
inhibition at 6.33 µM (HIV-1; [8]): 13.3%
inhibition at 0.634 µM (HIV-1; [9]): 0.22%
inhibition at 0.0635 µM (HIV-1; read-out: Percent of Protection, dose 6.35 × 10^-8 Molar): -1.54%
activity at 200 µM (HIV-1): 43.3%
activity at 20 µM (HIV-1; dose 2.00 × 10^-5 Molar): 67.7%
activity at 2 µM (HIV-1): 4.44%
activity at 0.2 µM (HIV-1): 2.37%
activity at 63.2 µM (HIV-1; dose 6.32 × 10^-5 Molar): 60.6%
activity at 6.33 µM (HIV-1; dose 6.33 × 10^-6 Molar): 15.1%
activity at 0.634 µM (HIV-1; dose 6.34 × 10^-7 Molar): 2.22%
activity at 0.0635 µM (HIV-1; dose 6.35 × 10^-8 Molar): 0.49%
TI50 (IC/EC), Therapeutic Index (HIV-1): 1.43 × 10^+1
IC50 ([1]; read-out: IC50 (50% inhibitory concentration for cell growth), uninfected CEM cells, 6 days, XTT): > 200 µM
activity at 200 µM [1]: 62.1%
activity at 20 µM [1]: 101%
activity at 2 µM [1]: 93.3%
activity at 0.2 µM [1]: 84.2%
activity at 63.2 µM [1]: 74.2%
activity at 6.33 µM [1]: 94.3%
activity at 0.634 µM [1]: 89.7%
activity at 0.0635 µM [1]: 87.2%

CNc1ccc(S(=O)(=O)c2ccccc2[N+](=O)[O-])cc1C [Compound 79, 4-(2-nitrophenyisulfonyl)-N,2-dimethylaniline]
EC50 (HIV-1): 0.183 µM
inhibition at 200 µM (HIV-1; [2]): 10.7%
inhibition at 20 µM (HIV-1; [6]): 78.6%
inhibition at 2 µM (HIV-1; [2]): 97%
inhibition at 0.2 µM (HIV-1; [2]): 53.9%
inhibition at 63.2 µM (HIV-1; [7]): 10.1%
inhibition at 6.33 µM (HIV-1; [8]): 103%
inhibition at 0.0635 µM (HIV-1; [4]): 7.87%
inhibition at 0.634 µM (HIV-1; [9]): 65%
activity at 200 µM (HIV-1): 15.2%
activity at 20 µM (HIV-1; dose 2.00 × 10^-5 Molar): 79.7%
activity at 2 µM (HIV-1): 97.2%
activity at 0.2 µM (HIV-1): 56.2%
activity at 63.2 µM (HIV-1; dose 6.32 × 10^-5 Molar): 14.6%
activity at 6.33 µM (HIV-1; dose 6.33 × 10^-6 Molar): 103%
activity at 0.634 µM (HIV-1; dose 6.34 × 10^-7 Molar): 66.8%
activity at 0.0635 µM (HIV-1; dose 6.35 × 10^-8 Molar): 12.5%
TI50 (IC/EC), Therapeutic Index (HIV-1): 1.79 × 10^-2
IC50 [1, 5]: 32.7 µM
activity at 200 µM [1]: 11.9%
activity at 20 µM [1]: 76.9%
activity at 2 µM [1]: 94%
activity at 0.2 µM [1]: 97.1%
activity at 63.2 µM [1]: 13.9%
activity at 6.33 µM [1]: 98.2%
activity at 0.634 µM [1]: 93%
activity at 0.0635 µM [1]: 107%
